The record followed here is ChEMBL document CHEMBL1151425, “RNAIII-inhibiting peptide affects biofilm formation in a rat model of staphylococcal ureteral stent infection” (Antimicrob Agents Chemother, 2007).

Some results are limits rather than exact numbers.

Data set [1] is filed under the species Rattus norvegicus. Kind of data set: Toxicity in Staphylococcus aureus Smith diffuse infected Wistar rat containing 1 ug/ml drug-coated ureteral stent assessed as drug-related adverse effects. Type of data set: organism-based. The following applies: in vivo, other.
The subject of data set [2] is Rattus norvegicus. Kind of data set: Toxicity in Staphylococcus aureus Smith diffuse infected Wistar rat containing 1 ug/ml drug-coated ureteral stent assessed as drug-related adverse effects in presence of 10 mg/kg, ip teicoplanin. The settings on record: in vivo. Details: dose 10 mg/kg, route intraperitoneal. It counts as organism-based.
Data set [3] relates to Rattus norvegicus. Kind of data set: Toxicity in Staphylococcus aureus Smith diffuse infected Wistar rat containing 1 ug/ml drug-coated ureteral stent assessed as mortality in presence of 10 mg/kg, ip teicoplanin. Type of data set: organism-based. Also noted: dose 10 mg/kg, route intraperitoneal. The following applies: in vivo.
The subject of data set [4] is Rattus norvegicus. Kind of data set: Toxicity in Staphylococcus aureus Smith diffuse infected Wistar rat assessed as mortality at 10 mg/kg, ip. Type of data set: organism-based. Details: dose 10 mg/kg, route intraperitoneal. The settings on record: in vivo.
The species entered for data set [5] is Rattus norvegicus. The experiment in a line: Toxicity in Staphylococcus aureus Smith diffuse infected Wistar rat containing 1 ug/ml drug-coated ureteral stent assessed as mortality. It counts as organism-based. The following applies: in vivo, other.
The subject of data set [6] is Staphylococcus aureus. The experiment in a line: Antimicrobial activity against Staphylococcus aureus Smith diffuse infected in Wistar rat ureteral stent infection model assessed as bacterial count in urine at 10 mg/kg, ip after 48 hrs. Type of data set: functional. The settings on record: route intraperitoneal.
In data set [7] the test system is Rattus norvegicus. The experiment in a line: Toxicity in Staphylococcus aureus Smith diffuse infected Wistar rat assessed as drug-related adverse effects at 10 mg/kg, ip. Type of data set: organism-based. Also noted: dose 10 mg/kg, route intraperitoneal. The following applies: in vivo.
In data set [8] the test system is Staphylococcus aureus. The experiment in a line: Antimicrobial activity against Staphylococcus aureus Smith diffuse infected in Wistar rat ureteral stent infection model assessed as bacterial count on ureteral stent at 10 mg/kg, ip after 48 hrs. Type of data set: functional. The settings on record: route intraperitoneal.
The test system of data set [9] is Staphylococcus aureus. The experiment in a line: Antimicrobial activity against Staphylococcus aureus Smith diffuse infected in Wistar rat ureteral stent infection model containing 1 ug/ml drug-coated stent assessed as bacterial count in urine after 48 hrs. It counts as functional.
Data set [10] relates to Staphylococcus aureus. Kind of data set: Potentiation of teicoplanin-induced antimicrobial activity against Staphylococcus aureus Smith diffuse infected in Wistar rat ureteral stent infection model containing drug-coated stent assessed as bacterial count on stent after 48 hrs. Type of data set: functional.
Data set [11] deals with Staphylococcus aureus. The experiment in a line: Antimicrobial activity against Staphylococcus aureus Smith diffuse infected in Wistar rat ureteral stent infection model containing 1 ug/ml drug-coated stent assessed as bacterial count on ureteral stent after 48 hrs. It counts as functional.
Data set [12] concerns Staphylococcus aureus. The experiment in a line: Antimicrobial activity against Staphylococcus aureus Smith diffuse infected in Wistar rat ureteral stent infection model. Type of data set: functional.
The test system of data set [13] is Staphylococcus aureus. Kind of data set: Potentiation of teicoplanin-induced antimicrobial activity against Staphylococcus aureus Smith diffuse infected in Wistar rat ureteral stent infection model containing drug-coated stent assessed as bacterial count in urine after 48 hrs. Type of data set: functional.

With `CC(=O)N[C@@H]1[C@H](Oc2c3cc4cc2Oc2ccc(cc2Cl)[C@@H](O[C@@H]2O[C@@H](CO)[C@@H](O)[C@H](O)[C@@H]2NC(C)=O)[C@@H]2NC(=O)[C@H](NC(=O)[C@@H]4NC(=O)[C@H]4NC(=O)[C@@H](Cc5ccc(c(Cl)c5)O3)NC(=O)[C@H](N)c3ccc(O)c(c3)Oc3cc(O)cc4c3)c3ccc(O)c(c3)-c3c(O[C@H]4O[C@H](CO)[C@@H](O)[C@@H](O)[C@@H]4O)cc(O)cc3[C@@H](C(=O)O)NC2=O)O[C@@H](CO)[C@@H](O)[C@@H]1O`, the Activity result in the data set filed under Rattus norvegicus [1], with Rattus norvegicus [2], in the data set with Rattus norvegicus [3], with Rattus norvegicus [4], in the data set listed under Rattus norvegicus [5] and in the data set on Rattus norvegicus [7] was “Non-toxic” each time. The CFU came to 2.9 ×10⁴ /ml with Staphylococcus aureus [6] and 3.8 ×10³ /ml in the data set on Staphylococcus aureus [8].

The term MIC denotes the least concentration at which growth counts as inhibited. The low end stands for a more susceptible organism, the high end for a less susceptible organism. Consider H-YSPWTNF-NH2, for which the CFU is 4 ×10⁴ /ml with Staphylococcus aureus [9], less than 10 mL⁻¹ in the data set on Staphylococcus aureus [10], 67 ×10³ /ml in the data set with Staphylococcus aureus [11] and less than 10 mL⁻¹ in the data set on Staphylococcus aureus [13]. In addition, the Activity entry in the data set filed under Rattus norvegicus [1], in the data set on Rattus norvegicus [2], in the data set on Rattus norvegicus [3], in the data set filed under Rattus norvegicus [5] and in the data set on Rattus norvegicus [7] was “Non-toxic” each time. Further, the MIC with Staphylococcus aureus [12] amounted to 1 µg/mL.
